Here are results for 25 molecules from patent US20240327359A1, “3-ISOXAZOLIDINONE COMPOUND, PREPARATION METHOD, HERBICIDAL COMPOSITION AND APPLICATION THEREOF” (QINGDAO KINGAGROOT CHEMICAL COMPOUND CO., LTD., priority 2021, published 2024).

What all share (assay): Activity test of the compositions, post-emergence treatment by foliage spray
Holding throughout (type): in vivo

One test concerns Echinochloa crusgalli. Conditions: foliage (F). Here is the method: (§1) The desired active ingredient B was purchased from a reagent company or synthesized by a known method. The technical materials were all dissolved in acetone and diluted with an aqueous solution containing 0.10% emulsifier Tween-80 which were to be used immediately after dilution.
(§2) Weeds were cultivated by a pot culture method. […] Weed seeds with plump and uniform grains were selected, soaked in lukewarm water at 25° C. for 6 hours, and germinated in a 28° C. biochemical incubator (in darkness). The weed seeds that had just germinated were evenly placed on the surface of the soil and then covered with 0.5-1 cm soil according to the sizes of seeds.
(§3) The culture was carried out in a controllable sunlight greenhouse at 20 to 30° C., in natural light, and with relative humidity of 57% to 72%.
(§4) Each treatment was repeated 4 times. Four pots with 20 weed seeds per pot were treated each time.
(§5) The agents were used for only once in total in the experiment. In the stage of 1.5-2 leaves, the weeds were thinned out to maintain 10 weeds per pot. Ten weeds were kept in each treatment, then continued to be cultured until Echinochloa crus-galli var. zelayensis reached the stage of 2-3 leaves, Cirsium setosum reached the stage of 5-6 leaves, Galium aparine reached the stage of 3-4 whorl leaves, Amaranthus retroflexus reached the stage of 3-5 leaves, Echinochloa crusgalli, Lolium multiflorum and Digitaria sanguinalis reached the stage of 3 leaves with one leaf not fully expanding for further treatment.
(§6) The well-cultured test materials were evenly placed on a platform with an area of 0.5 m^2, and solution of agents was sprayed on the stems and leaves thereof by the 3WP-2000-type walking spray tower at a dosage of 450 kg/ha and at a spray pressure of 0.3 MPa. After all the solution was sprayed, the valve was closed. After 30 seconds, the door of the spray tower was opened, and the nutritional bowl was taken out. Then the valve was opened, and the spray tube was cleaned by spraying 50 ml of water. After the treatment, the weeds were routinely cultured in a greenhouse.
(§7) A method for investigating absolute numbers was employed. Whole seedlings of survival weeds were cut off with a blade along the soil surface, and the fresh weight of the weeds was weighed with an analytical balance. For dead weeds, the fresh weight thereof was zero.
(§8) The investigation was performed 21 days after the treatment for only once in total.

The subject of the next test is Lolium multiflorum. Conditions: foliage (F). Here is the method: as §1, §2, §3, §4, §5, §6, §7, §8
A further test has as its system Galium aparine. The settings on record: foliage (F). Here is the method:
as §1, §2, §4, §5, §6, §7, §8

The subject of the next test is Amaranthus retroflexus. The settings on record: foliage (F). The protocol: as §1, §2, §3, §4, §5, §6, §7, §8
A further test deals with Digitaria sanguinalis. Here is the method:
as §1, §2, §3, §4, §5, §6, §7, §8

Test [1] relates to Echinochloa crus-galli var. zelayensis. The settings on record: Echinochloa crusgalli var. zelayensis, foliage (F). The protocol:
as §1, §2, §3, §4, §5, §6, §7, §8

For the molecule `CCC[S@@+]([O-])c1c(C(F)(F)F)ccc(C(=O)Nc2nnc(C)o2)c1F`, the “Control effect (%) of B applied alone (B)” value (“Control effect (%)” for short) in the test with Echinochloa crusgalli (B 1.5 g a.i./mu) was 33.8%; in the test with Echinochloa crusgalli (B 3 g a.i./mu), 49.7%.
In the case of `C[C@@H](Oc1nc(F)c(Cl)c(N)c1Cl)C(=O)OCC1CCCO1` (some centres unmarked), the “Control effect (%)” value with Lolium multiflorum (B 8 g a.i./mu) was 30.7%; in the test on Lolium multiflorum (B 16 g a.i./mu) it was 44.1%.
Consider `Cc1cc(Cl)ccc1OCC(=O)O` [MCPA], for which the “Control effect (%)” value with Galium aparine (B 20 g a.i./mu) was found to be 33.1%; in the test on Galium aparine (B 40 g a.i./mu), 46.7%.
Regarding `CC(C)c1nn(C(=O)NC(C)(C)C)c(=O)n1N` [amicarbazone], the entries for the “Control effect (%)” value with Echinochloa crusgalli (B 4 g a.i./mu) and in the test on Echinochloa crusgalli (B 8 g a.i./mu) were 29.8% and 37.2%, respectively.
With `Cc1nn(C)cc1C(=O)Oc1c(C(=O)c2ccc(C(F)(F)F)cc2S(C)(=O)=O)c(C)nn1C` [bipyrazone], the entries for the “Control effect (%)” value with Galium aparine (B 0.75 g a.i./mu) and in the test with Galium aparine (B 1.5 g a.i./mu) were 33.6% and 46.2%, respectively.
Regarding `COc1cc(OC)nc(Oc2cccc(Oc3nc(OC)cc(OC)n3)c2C(=O)O)n1` [bispyribac], the results for the “Control effect (%)” value in the test with Echinochloa crusgalli (B 0.6 g a.i./mu) and with Echinochloa crusgalli (B 1.2 g a.i./mu) were 30.7% and 42. %, respectively.
With `CCCCCCCC(=O)Oc1c(Br)cc(C#N)cc1Br` [bromoxynil octanoate], the “Control effect (%)” value with Amaranthus retroflexus (B 6 g a.i./mu) is 38.2%; in the test on Amaranthus retroflexus (B 12 g a.i./mu), 49.5%.
Regarding `Cn1[nH]c(C2CC2)c(C(=O)c2ccc(C(F)(F)F)c(N3CCCCC3=O)c2Cl)c1=O` [cypyrafluone], the “Control effect (%)” value in the test on Lolium multiflorum (B 3 g a.i./mu) turned out to be 26.7%; in the test on Lolium multiflorum (B 6 g a.i./mu), 38.9%.
Turning to `COc1c(Cl)ccc(Cl)c1C(=O)O` [dicamba], the “Control effect (%)” value in the test with Galium aparine (B 4 g a.i./mu) worked out at 28.6%; with Galium aparine (B 8 g a.i./mu), 39.7%.
Regarding `CCn1ncc(C(=O)c2ccc(S(C)(=O)=O)c(COCC(F)(F)F)c2Cl)c1OC(=O)c1cn(C)nc1C` [fenpyrazone], the “Control effect (%)” value was determined as 32.6% in the test with Echinochloa crusgalli (B 1.5 g a.i./mu) and 50.7% with Echinochloa crusgalli (B 3 g a.i./mu).
With `COc1ncc(F)c2nc(S(=O)(=O)Nc3c(F)cccc3F)nn12` [florasulam], the “Control effect (%)” value in the test on Galium aparine (B 0.1 g a.i./mu) was determined as 31.5%; in the test with Galium aparine (B 0.2 g a.i./mu) it was 44.1%.
`COc1c(Cl)ccc(-c2nc(C(=O)O)c(Cl)c(N)c2F)c1F` [florpyrauxifen]: the results for the “Control effect (%)” value in the test on Echinochloa crusgalli (B 0.5 g a.i./mu) and with Echinochloa crusgalli (B 1 g a.i./mu) were 22.5% and 41.3%, respectively.
Take `Nc1c(Cl)c(F)nc(OCC(=O)O)c1Cl` [fluroxypyr]: the entries for the “Control effect (%)” value in the test on Galium aparine (B 4 g a.i./mu) and in the test with Galium aparine (B 8 g a.i./mu) were 29.4% and 46.1%, respectively.
In the case of `CS(=O)(=O)NC(=O)c1cc(Oc2ccc(C(F)(F)F)cc2Cl)ccc1[N+](=O)[O-]` [fomesafen], the “Control effect (%)” value in the test on Amaranthus retroflexus (B 4 g a.i./mu) is 38.1%; with Amaranthus retroflexus (B 8 g a.i./mu) it was 47.5%.
Turning to `COc1c(Cl)ccc(-c2cc(N)c(Cl)c(C(=O)O)n2)c1F` [halauxifen], the figures for the “Control effect (%)” value with Galium aparine (B 0.2 g a.i./mu) and with Galium aparine (B 0.4 g a.i./mu) were 26.4% and 37.2%, respectively.
As to `Cc1ccc2c(c1)[C@H](Nc1nc(N)nc(C(C)F)n1)[C@@H](C)C2` (some centres unmarked) [indaziflam], the “Control effect (%)” value in the test on Digitaria sanguinalis (foliage treatment (F), B at 0.8 g a.i./mu, 21 days) is 36.4%; with Digitaria sanguinalis (foliage treatment (F), B at 1.6 g a.i./mu, 21 days) it was 52.1%.
Consider `COC(=O)c1ccc(CNS(C)(=O)=O)cc1S(=O)(=O)NC(=O)Nc1nc(OC)cc(OC)n1` [mesosulfuron-methyl], for which the “Control effect (%)” value in the test on Lolium multiflorum (B 0.25 g a.i./mu) amounted to 31.5%; in the test with Lolium multiflorum (B 0.5 g a.i./mu) it was 44.3%.
Consider `CS(=O)(=O)c1ccc(C(=O)C2C(=O)CCCC2=O)c([N+](=O)[O-])c1` [mesotrione], for which the “Control effect (%)” value with Digitaria sanguinalis (foliage (F), B 2.5 g a.i./mu) stood at 38.6%; in the test on Digitaria sanguinalis (foliage (F), B 5 g a.i./mu) it was 52.1%.
For the molecule `COc1cc(OC)nc(NC(=O)NS(=O)(=O)c2ncccc2C(=O)N(C)C)n1` [nicosulfuron], the “Control effect (%)” value is given as 29.7% in the test on Digitaria sanguinalis (foliage (F), B 1 g a.i./mu) and 47.6% in the test on Digitaria sanguinalis (foliage (F), B 2 g a.i./mu).
Consider `COc1cnc(OC)n2nc(NS(=O)(=O)c3c(OCC(F)F)cccc3C(F)(F)F)nc12` [penoxsulam], for which the “Control effect (%)” value with Echinochloa crusgalli (B 0.5 g a.i./mu) was 52.7%; in the test with Echinochloa crusgalli (B 1 g a.i./mu) it was 61.7%.
Consider `CCC(=O)Nc1ccc(Cl)c(Cl)c1` [propanil], for which the “Control effect (%)” value is listed as 16.8% in test [1] (B 16 g a.i./mu) and 31.2% in test [1] (B 32 g a.i./mu).
Regarding `CCCN(CCC)C(=O)SCc1ccccc1` [prosulfocarb], the entries for the “Control effect (%)” value in the test on Galium aparine (B 50 g a.i./mu) and with Galium aparine (B 100 g a.i./mu) were 40.5% and 56.1%, respectively.
Take `O=C(O)c1c(Cl)ccc2cc(Cl)cnc12` [quinclorac]: the “Control effect (%)” value came to 22.5% in test [1] (B 4 g a.i./mu) and 41.4% in test [1] (B 8 g a.i./mu).
On to `COC(=O)CCNC(=O)C(C)Sc1cc(-n2c(=O)cc(C(F)(F)F)n(C)c2=O)c(F)cc1Cl` (centres unmarked) [tiafenacil], for which the results for the “Control effect (%)” value in the test on Echinochloa crusgalli (B 0.5 g a.i./mu) and in the test with Echinochloa crusgalli (B 1 g a.i./mu) were 33.4% and 45.9%, respectively.
As for `Cc1cc(C)n(Cc2c(S(C)(=O)=O)ccc(C(=O)c3c(C)nn(C)c3OC(=O)c3cn(C)nc3C)c2Cl)n1` [tripyrasulfone], the “Control effect (%)” value stood at 26.7% in the test with Echinochloa crusgalli (B 4 g a.i./mu) and 46.1% in the test on Echinochloa crusgalli (B 8 g a.i./mu).
